# Measurements from patent US20180251847A1, “METHOD OF PREDICTING THE TUMOR RESPONSE TO DNA METHYLATION INHIBITORS AND ALTERNATIVE THERAPEUTIC REGIMEN FOR OVERCOMING RESISTANCE” (PALACKY UNIVERSITY, OLOMOUC, priority 2014, published 2018).
# Counter-ions that a name gives are not always drawn. Like-named read-outs stand apart in the source and are kept apart here.
# Legend:
# Set-up in all cases: species or system human
# HCT116 = assay: MTT based cell survival assay, parental HCT116; settings: read-out: Mean IC50
# Procedure: To study the mechanism of resistance towards DNA methylation inhibitor, 2′-deoxy-5-azacytidine, we used the human colorectal cancer cell line (HCT116), human promyelocytic leukemia cells (HL-60), and human breast adenocarcinoma cell line (MCF-7) obtained from American Type Culture Collection (Manassas, Va.). The cell lines were cultured in complete growth media (Sigma-Aldrich, St. Louis, Mo.), supplemented with fetal bovine serum (FBS, PAN-Biotech GmbH, Aidenbach, Germany), 100 U/mL penicillin (Biotika, Slovenská L'upča, Slovak Republic) and 50 μg/mL streptomycin (Sigma-Aldrich), and the cultures were maintained at 37° C. and 5% CO2, in a humidified incubator. The cell line, HCT116 was grown in McCoy's 5 A medium supplemented with 10% FBS and 3 mM L-glutamine (Sigma-Aldrich), HL-60 was grown in Iscove's Modified Dulbecco's Medium with 20% FBS, and MCF-7 was grown in RPMI-1640 medium with 10% FBS.
# The method is primarily based on reduction of yellow colored tetrazolium salt, 3-(4,5-dimethylthiazol-2-yl)-2,5-diphenyltetrazolium bromide (MTT) to insoluble purple colored formazan crystals by NAD(P)H-dependent oxidoreductase enzymes in mitochondria of the viable cell. The intensity of the purple color produced on solubilization of the formazan crystals is directly proportional to the number of viable cells (Meerloo J. V. et al., Methods in Molecular Biology 2011; 731, 237-45).
# To determine the IC50 of the epigenetic drugs (Tocris Bioscience, Bristol, United Kingdom), four independent experiments were performed using triplicate wells of 96 well plates. Cells in 80 μL of medium were plated in each of the experimental and the control wells, followed by addition of 20 μL medium with five-fold drug concentration to experimental wells. The wells with medium alone were included alongside as blank for absorbance readings. […], 10 μL MTT (Sigma-Aldrich) prepared in 1×PBS (5 mg/mL) was added to all wells including blank and control, and incubated until the purple formazan crystals were visible after which 100 μL of detergent (10% SDS, pH: 5.5) was added and the plates were incubated overnight to solubilize the formazan and the cellular material.
# (§1) Cross resistance was determined as the fold increase, whereas, the sensitivity was determined as the fold decrease in the IC50 of the drugs for the resistant cell lines compared to their genetically identical drug sensitive counterpart.
# R1.1 (HCT116-RDAC) = assay: MTT based cell survival assay, DAC resistant HCT116 clone R1.1; settings: for IC50: read-out: Mean IC50; for fold change (resistance index): IC50 R1.1 / IC50 HCT116
# Procedure: (§2) The DAC resistant HCT116 cell lines were developed using two methods.
# (§3) The method is primarily based on reduction of yellow colored tetrazolium salt, 3-(4,5-dimethylthiazol-2-yl)-2,5-diphenyltetrazolium bromide (MTT) to insoluble purple colored formazan crystals by NAD(P)H-dependent oxidoreductase enzymes in mitochondria of the viable cell.
# (§4) Cells in 80 μL of medium were plated in each of the experimental and the control wells, followed by addition of 20 μL medium with five-fold drug concentration to experimental wells. The wells with medium alone were included alongside as blank for absorbance readings. After 72 h of drug treatment, 10 μL MTT (Sigma-Aldrich) prepared in 1×PBS (5 mg/mL) was added to all wells including blank and control, and incubated until the purple formazan crystals were visible after which 100 μL of detergent (10% SDS, pH: 5.5) was added and the plates were incubated overnight to solubilize the formazan and the cellular material.
# as §1
# R1.2 (HCT116-RDAC) = assay: MTT based cell survival assay, DAC resistant HCT116 clone R1.2; settings: for IC50: read-out: Mean IC50; for fold change (resistance index): IC50 R1.2 / IC50 HCT116
# Procedure: as §2, §3, §4, §1
# R1.3 (HCT116-RDAC) = assay: MTT based cell survival assay, DAC resistant HCT116 clone R1.3; settings: for IC50: read-out: Mean IC50; for fold change (resistance index): IC50 R1.3 / IC50 HCT116
# Procedure: as §2, §3, §4, §1
# R1.4 (HCT116-RDAC) = assay: MTT based cell survival assay, DAC resistant HCT116 clone R1.4; settings: for IC50: read-out: Mean IC50; for fold change (resistance index): IC50 R1.4 / IC50 HCT116
# Procedure: as §2, §3, §4, §1
# R2.1 (HCT116-RDAC) = assay: MTT based cell survival assay, DAC resistant HCT116 clone R2.1; settings: for IC50: R2.1, MTT, 72 h drug treatment; for fold change (resistance index): IC50 R2.1 / IC50 HCT116
# Procedure: as §2, §3, §4, §1
# R2.2 (HCT116-RDAC) = assay: MTT based cell survival assay, DAC resistant HCT116 clone R2.2; settings: for IC50: read-out: Mean IC50; for fold change (resistance index): IC50 R2.2 / IC50 HCT116
# Procedure: as §2, §3, §4, §1
# [1] = Homo sapiens, HCT-116, HCT116 parental, MTT, 72 h drug treatment
# [2] = Homo sapiens, HCT-116, R1.1, MTT, 72 h drug treatment
# [3] = Homo sapiens, HCT-116, R1.2, MTT, 72 h drug treatment
# [4] = Homo sapiens, HCT-116, R1.3, MTT, 72 h drug treatment
# [5] = Homo sapiens, HCT-116, R1.4, MTT, 72 h drug treatment
# [6] = Homo sapiens, HCT-116, R2.2, MTT, 72 h drug treatment
# [7] = HCT116 parental, MTT, 72 h drug treatment
SMILES,IC50 (HCT116; [1]) [µM],IC50 (R1.1 (HCT116-RDAC); [2]) [µM],fold change (resistance index) (R1.1 (HCT116-RDAC)),IC50 (R1.2 (HCT116-RDAC); [3]) [µM],fold change (resistance index) (R1.2 (HCT116-RDAC)),IC50 (R1.3 (HCT116-RDAC); [4]) [µM],fold change (resistance index) (R1.3 (HCT116-RDAC)),IC50 (R1.4 (HCT116-RDAC); [5]) [µM],fold change (resistance index) (R1.4 (HCT116-RDAC)),"IC50 (R2.1 (HCT116-RDAC); Homo sapiens, HCT-116) [µM]",fold change (resistance index) (R2.1 (HCT116-RDAC)),IC50 (R2.2 (HCT116-RDAC); [6]) [µM],fold change (resistance index) (R2.2 (HCT116-RDAC)),IC50 (HCT116; [7]) [µM],"IC50 (R1.1 (HCT116-RDAC); R1.1, MTT, 72 h drug treatment) [µM]","IC50 (R1.2 (HCT116-RDAC); R1.2, MTT, 72 h drug treatment) [µM]","IC50 (R1.3 (HCT116-RDAC); R1.3, MTT, 72 h drug treatment) [µM]","IC50 (R1.4 (HCT116-RDAC); R1.4, MTT, 72 h drug treatment) [µM]",IC50 (R2.1 (HCT116-RDAC)) [µM],"IC50 (R2.2 (HCT116-RDAC); R2.2, MTT, 72 h drug treatment) [µM]",also measured
"Nc1ncn([C@@H]2O[C@H](CO)[C@@H](O)[C@H]2O)c(=O)n1 [AZA, 5-azacytidine]",3.02,9.36,(3.10) fold,11.7,(3.87) fold,10.6,(3.50) fold,14.9,(4.92) fold,12.3,(4.07) fold,14.5,(4.19) fold,,,,,,,,
"CCCCCCCCCCCCCCCc1cccc(O)c1C(=O)O [Ancardic acid, Anacardic acid]",,,(1.07) fold,,(1.06) fold,,(1.04) fold,,(1.02) fold,,(1.03) fold,,(1.04) fold,120,128,127,125,122,124,125,
COc1cc2nc(N3CCCN(C)CC3)nc(NC3CCN(Cc4ccccc4)CC3)c2cc1OC [BIX-01294],2.55,3,(1.17) fold,3.02,(1.19) fold,2.97,(1.16) fold,3.05,(1.20) fold,3.4,(1.33) fold,3.22,(1.26) fold,,,,,,,,
CC1=NN(c2ccc(C(=O)O)cc2)C(=O)/C1=C\c1ccc(-c2cc(C)c(C)cc2[N+](=O)[O-])o1 [C646],,,(1.35) fold,,(1.51) fold,,(1.42) fold,,(1.53) fold,,(1.52) fold,,(1.64) fold,33.5,45.1,50.6,47.5,51.3,51,55,
"Cl.Nc1nccc2c1ncn2[C@@H]1C=C(CO)[C@@H](O)[C@H]1O [DZNep, 3-Deazaneplanocin A hydrochloride]",,,(30.34) fold,,(30.34) fold,,(30.34) fold,,(30.34) fold,,(30.34) fold,,(30.34) fold,0.82,,,,,,,
CCOC(=O)CCNc1cc(N2CCc3ccccc3CC2)nc(-c2ccccn2)n1 [GSK J4],,,(1.52) fold,,(1.30) fold,,(1.39) fold,,(1.34) fold,,(2.11) fold,,(1.87) fold,2.28,3.45,2.95,3.18,3.05,4.81,4.25,
"COc1cc2c(cc1-c1c(C)noc1C)ncc1[nH]c(=O)n([C@H](C)c3ccccn3)c12 [I-BET 151, I-BET 151 hydrochloride]",,,,,,,,,,3.16,,,,,,,,,,,"IC50 (HCT116; Homo sapiens, HCT-116, 72 h): 5.23 µM; IC50 (R1.1 (HCT116-RDAC); Homo sapiens, HCT-116, 72 h): 2.68 µM; fold change (sensitivity index) (R1.1 (HCT116-RDAC); IC50 HCT116 / IC50 R1.1): (1.95) fold; IC50 (R1.2 (HCT116-RDAC); Homo sapiens, HCT-116, 72 h): 5.18 µM; fold change (sensitivity index) (R1.2 (HCT116-RDAC); IC50 HCT116 / IC50 R1.2): (1.01) fold; IC50 (R1.3 (HCT116-RDAC); Homo sapiens, HCT-116, 72 h): 1.6 µM; fold change (sensitivity index) (R1.3 (HCT116-RDAC); IC50 HCT116 / IC50 R1.3): (3.28) fold; IC50 (R1.4 (HCT116-RDAC); Homo sapiens, HCT-116, 72 h): 3.58 µM; fold change (sensitivity index) (R1.4 (HCT116-RDAC); IC50 HCT116 / IC50 R1.4): (1.46) fold; fold change (sensitivity index) (R2.1 (HCT116-RDAC); IC50 HCT116 / IC50 R2.1): (1.65) fold; IC50 (R2.2 (HCT116-RDAC); Homo sapiens, HCT-116, 72 h): 5.4 µM; fold change (sensitivity index) (R2.2 (HCT116-RDAC); IC50 HCT116 / IC50 R2.2): (0.97) fold"
O=C(O)c1ccc(O)c2ncccc12 [IOX1],,,(1.41) fold,,(2.15) fold,,(1.80) fold,,(1.96) fold,,(1.70) fold,,(1.93) fold,29.6,41.6,63.6,53.2,58.1,50.2,57,
C/C=C1\NC(=O)[C@H]2CSSCC/C=C/[C@H](CC(=O)N[C@H](C(C)C)C(=O)N2)OC(=O)[C@H](C(C)C)NC1=O [Romidepsin],,,(1.14) fold,,(1.77) fold,,(1.18) fold,,(1.14) fold,0.0054,(1.95) fold,,(2.64) fold,,,,,,,,"IC50 (HCT116; Homo sapiens, HCT-116, 72 h): 0.0028 µM; IC50 (R1.1 (HCT116-RDAC); Homo sapiens, HCT-116, 72 h): 0.0031 µM; IC50 (R1.2 (HCT116-RDAC); Homo sapiens, HCT-116, 72 h): 0.0049 µM; IC50 (R1.3 (HCT116-RDAC); Homo sapiens, HCT-116, 72 h): 0.0033 µM; IC50 (R1.4 (HCT116-RDAC); Homo sapiens, HCT-116, 72 h): 0.0031 µM; IC50 (R2.2 (HCT116-RDAC); Homo sapiens, HCT-116, 72 h): 0.0073 µM"
O=c1ncccn1[C@@H]1O[C@H](CO)[C@@H](O)[C@H]1O [Zebularine],84.2,≥ 100,(1.19) fold,≥ 100,(1.19) fold,≥ 100,(1.19) fold,≥ 100,(1.19) fold,≥ 100,(1.19) fold,≥ 100,(1.19) fold,,,,,,,,
